Measurements taken from US20240299535A1, “TARGETED GLYCOSAMINOGLYCAN-PARTICLES AND METHODS OF USE” (priority 2021, published 2024).

Experiments:
[1] = tested on: RAW 264.7 macrophages; assay: Endocytosis inhibition study of HEP-AuNP uptake (ICP-MS); type: cell-based, murine; conditions: for effect on nanoparticle cellular uptake / nanoparticle cellular uptake inhibition efficiencies: inhibitor screen, 1 h pre-incubation, nanoparticles 1.5 hours; for inhibitory effects for nanoparticle uptake: dose escalation, 0-31.4 μM chlorpromazine, 0-3.9 μM cytochalasin D
Experimental: Panel (A) is a schematic representation of the uptake pathway study: (i) non-specific endocytosis inhibition to determine whether nanoparticle cellular uptake is energy-dependent. (ii-iv) Specific endocytosis inhibitors for studying (ii) caveolae-mediated endocytosis, (iii) clathrin-mediated endocytosis, and (iv) macropinocytosis. Panels (B) to (D) are ICP-MS quantification of the nanoparticle cellular uptake in RAW 264.7 macrophages at 4° C.—Panel (B), in the presence of ATPase inhibitor sodium azide—Panel (C), or chemical endocytosis inhibitors of caveolae-mediated endocytosis, clathrin-mediated endocytosis, and […]—Panel (D). AuNPs modified with 13-kDa HEP (at 0.2 nM) were used as control without inhibitors at 37° C. Bars indicate mean±SD (n=3-4); statistical tests used one-way ANOVA (p<0.0001 (****); p<0.0021 (**); p<0.0332 (*).
We hypothesized that these nanoparticles might enter cells via endocytosis by one or more energy-dependent uptake pathways. Thus, we carried out a systematic endocytosis inhibition study to discern which uptake pathways were involved.
First, we pre-incubated the innate immune cells for 1 h with the endocytosis inhibitors. Then we added the nanoparticles and incubated them with the cells for 1.5 hours. We imaged the cells with a light microscope and quantified the nanoparticle uptake by ICP-MS (FIG. 2, Panel (D)).
(§1) We performed systematic dose escalation studies to assess the dose-response of the inhibitory effect and the cell toxicity of these two agents. Based on the previous dose screening experiments and published cell viability data the dose ranges were 0-31.4 μM and 0-3.9 μM for chlorpromazine and cytochalasin D, respectively.

[2] = tested on: RAW 264.7 macrophages; assay: HEP structural analog competition of HEP-AuNP uptake (ICP-MS); type: cell-based, murine; conditions: pre-incubation with competitor
Excerpt: To quantify the nanoparticles' cellular interactions, we performed quantitative ICP-MS and corroborated the results qualitatively with light microscopy. […] No significant competition with the remaining structural analogs was observed.

[3] = tested on: DC 2.4 dendritic cells; assay: CS A competition of HEP-AuNP uptake (ICP-MS); type: cell-based, murine; conditions: 1 hour pre-incubation, nanoparticles 2.5 hour; non-cytotoxic doses
Excerpt: Next, we expanded the structural analog competition study to DC 2.4 dendritic cells. […] We quantified the competition efficiency by ICP-MS and corroborated the results with light microscopy.

[4] = tested on: cell uptake of HEP-AuNPs; assay: CS A competition as a function of time and concentration (ICP-MS); type: cell-based
Excerpt: We further assessed the competition effect of CS A as a function of time and concentration at non-cytotoxic levels. […] These competition experiments with GAG structural analog polymers imply that CS A can substitute to some degree as a ligand for HEP for the internalization receptor(s).

[5] = tested on: RAW 264.7 macrophages
Excerpt: We next investigated whether the CS A inhibitory effect of HEP-AuNP uptake was due to a potential toxicity effect of the CS A preparation, which was extracted from a mammalian source.

[6] = tested on: DC 2.4 dendritic cells; assay: Endocytosis inhibition study of HEP-AuNP uptake (ICP-MS); type: cell-based, murine
Experimental: To test whether the HEP-coated nanoparticles could enter cells through clathrin-mediated endocytosis and macropinocytosis and/or phagocytosis in another immune cell line, we conducted further inhibition experiments in DC 2.4 dendritic cells. […] Additionally, we co-incubated chlorpromazine and cytochalasin D inhibitors with cells to test if there was any additive endocytosis inhibitory effect.

[7] = tested on: RAW264.7 macrophages; assay: Cell viability assays with endocytosis inhibitors; conditions: 0-31.4 μM chlorpromazine, 0-3.9 μM cytochalasin D
Experimental: as §1

## O=C(N/N=C/c1ccc(O)c(O)c1)c1cc2ccccc2cc1O [Dynasore]
[1]
  effect on nanoparticle cellular uptake: did not reduce the nanoparticle cellular uptake

## heparin
[2]
  reduction of cellular uptake of HEP-AuNPs vs no-competitor group: approximately 18%

## Chondroitin Sulfate C [CS C]
[2]
  reduction of cellular uptake of HEP-AuNPs vs no-competitor group: approximately 15%

## CCCCC[C@@H](O)[C@H]1C(=O)O[C@H](C)[C@@H](O)/C=C/C=C/C=C/C=C/C=C(\C)[C@@H](O)C[C@H](O)C[C@H](O)C[C@H](O)C[C@H](O)C[C@H](O)C[C@@H]1O [Filipin]
[1]
  effect on nanoparticle cellular uptake: did not reduce the nanoparticle cellular uptake

## CN(C)CCCN1c2ccccc2CCc2ccccc21 [imipramine]
[1]
  nanoparticle cellular uptake inhibition efficiencies: ~8%

## Chondroitin Sulfate A [CS A]
[2]
  reduction of cellular uptake of HEP-AuNPs vs no-competitor group: ~43%
[3]
  nanoparticle uptake vs no-competitor group: lower nanoparticle uptake
[4]
  IC50 (inhibitor dose-response of HEP-AuNP uptake): 0.5 mg/mL
[4]; 1 mg/mL
  inhibitory effect over time: persisted throughout time
[4]; 2 mg/mL
  suppression of cellular uptake of HEP-AuNPs: up to 9 fold
[5]
  effect on cell viability: did not affect cell viability

## [N-]=[N+]=[N-] [sodium azide]
[1]; 0.1% w/v sodium azide
  reduction of cellular uptake of HEP-AuNPs: approximately 22%

## CCN(CC)CCCC(C)Nc1ccnc2cc(Cl)ccc12 (centres unmarked) [chloroquine]
[1]
  nanoparticle cellular uptake inhibition efficiencies: ~12%

## C=C1[C@@H](C)[C@H]2[C@H](Cc3ccccc3)NC(=O)[C@]23[C@H](OC(C)=O)/C=C/[C@@](C)(O)C(=O)[C@@H](C)C/C=C/[C@H]3[C@@H]1O [cytochalasin D]
[6]
  reduction of HEP-AuNP uptake: approximately 77%
[1]
  inhibitory effects for nanoparticle uptake: approximately 51%
  nanoparticle cellular uptake inhibition efficiencies: ~24%
[7]
  cytotoxicity of inhibitor doses: not cytotoxic

## CCN1C(=O)C=CC1=O [N-ethylmaleimide]
[1]
  effect on nanoparticle cellular uptake: did not reduce the nanoparticle cellular uptake

## CN(C)CCCN1c2ccccc2Sc2ccc(Cl)cc21 [chlorpromazine]
[6]
  reduction of HEP-AuNP uptake: approximately 77%
[1]
  inhibitory effects for nanoparticle uptake: approximately 70%
  nanoparticle cellular uptake inhibition efficiencies: approximately 73%
[7]
  cytotoxicity of inhibitor doses: not cytotoxic

## CCN(c1nc(N)c(C(=O)N=C(N)N)nc1Cl)C(C)C [EIPA, 5-(N-ethyl-N-isopropyl) amiloride]
[1]
  effect on nanoparticle cellular uptake: did not reduce the nanoparticle cellular uptake
